Test results as given in US20140154342A1, “SANDALWOOD OIL AND ITS USES RELATED TO SKIN DISORDERS” (SANTALIS PHARMACEUTICALS INC., priority 2011, published 2014).
Converted amounts (≈) assume the structure as drawn.

Legend:
[1] = system: MCP-1; test: MCP-1 expression in conditioned media of LPS stimulated dermal fibroblasts by ELISA; format: cell-based; conditions: at 40-160 μg/ml
[2] = system: dermal fibroblasts; conditions: 24 h
[3] = system: IL-6; test: IL-6 expression in conditioned media of LPS stimulated dermal fibroblasts by ELISA; format: cell-based; conditions: Fibroblast, 24 h, read-out: IC50, suppression of IL-6 expression
Protocol: Dermal fibroblasts were treated with LPS+S1 or S2 at 5-40 μg/ml for 24 h. […] Ibuprofen suppressed IL-6 expression with IC50 of ˜40 μg/ml.

In the case of `CC(C)Cc1ccc(C(C)C(=O)O)cc1` (stereo not drawn) [Ibuprofen], the “suppression of MCP-1 expression” value [1] is reported as ~10 fold, the “concentration with cytotoxic effect (no adverse effects / no cytotoxicity up to the value)” value [2] is reported as > 160 µg/mL and the IC50 [3] is reported as ~40 µg/mL (≈ 194 µM).
